The text below walks through data of patent US20260356804A1, “SODIUM CHANNEL BLOCKING COMPOUNDS, DERIVATIVES THEREOF, AND METHODS OF THEIR USE” (LATIGO BIOTHERAPEUTICS, INC., priority 2022, published 2026).

The assay deals with T1, human Nav1.8/b3 (Homo sapiens, UniProt Q9Y5Y9).
T1 construct: expressed in transfected cells; host or cells: CHO
Put plainly: Compound Profiling Human NaV1.8/β3 Cell Line—SyncroPatch384PE Assay (automated patch clamp, stably transfected CHO cells). The class given is cell-based. Particulars: Nav1.8/b3 CHO cells.

The mark [1] stands for this setting: P1 (IC50, resting state block), P1 measurement, resting state block, holding potential −120 mV, second set of compounds.
Setting [2] is: P2 (IC50, inactivated state block), P2 measurement, inactivated state block, inactivation step −35 mV 10 sec, second set of compounds.
Setting [3] is: P1 (IC50, resting state block), P1 measurement, resting state block, holding potential −120 mV, fourth set of compounds.
[4] abbreviates: P2 (IC50, inactivated state block), P2 measurement, inactivated state block, inactivation step −35 mV 10 sec, fourth set of compounds.
Where [5] appears, read: P1 (IC50, resting state block), P1 measurement, resting state block, holding potential −120 mV, third set of compounds.
Setting [6] is: P2 (IC50, inactivated state block), P2 measurement, inactivated state block, inactivation step −35 mV 10 sec, third set of compounds.

Structures are written as SMILES. pIC50: −log10 of the molar value.

T1 sequence (Q9Y5Y9 whole entry): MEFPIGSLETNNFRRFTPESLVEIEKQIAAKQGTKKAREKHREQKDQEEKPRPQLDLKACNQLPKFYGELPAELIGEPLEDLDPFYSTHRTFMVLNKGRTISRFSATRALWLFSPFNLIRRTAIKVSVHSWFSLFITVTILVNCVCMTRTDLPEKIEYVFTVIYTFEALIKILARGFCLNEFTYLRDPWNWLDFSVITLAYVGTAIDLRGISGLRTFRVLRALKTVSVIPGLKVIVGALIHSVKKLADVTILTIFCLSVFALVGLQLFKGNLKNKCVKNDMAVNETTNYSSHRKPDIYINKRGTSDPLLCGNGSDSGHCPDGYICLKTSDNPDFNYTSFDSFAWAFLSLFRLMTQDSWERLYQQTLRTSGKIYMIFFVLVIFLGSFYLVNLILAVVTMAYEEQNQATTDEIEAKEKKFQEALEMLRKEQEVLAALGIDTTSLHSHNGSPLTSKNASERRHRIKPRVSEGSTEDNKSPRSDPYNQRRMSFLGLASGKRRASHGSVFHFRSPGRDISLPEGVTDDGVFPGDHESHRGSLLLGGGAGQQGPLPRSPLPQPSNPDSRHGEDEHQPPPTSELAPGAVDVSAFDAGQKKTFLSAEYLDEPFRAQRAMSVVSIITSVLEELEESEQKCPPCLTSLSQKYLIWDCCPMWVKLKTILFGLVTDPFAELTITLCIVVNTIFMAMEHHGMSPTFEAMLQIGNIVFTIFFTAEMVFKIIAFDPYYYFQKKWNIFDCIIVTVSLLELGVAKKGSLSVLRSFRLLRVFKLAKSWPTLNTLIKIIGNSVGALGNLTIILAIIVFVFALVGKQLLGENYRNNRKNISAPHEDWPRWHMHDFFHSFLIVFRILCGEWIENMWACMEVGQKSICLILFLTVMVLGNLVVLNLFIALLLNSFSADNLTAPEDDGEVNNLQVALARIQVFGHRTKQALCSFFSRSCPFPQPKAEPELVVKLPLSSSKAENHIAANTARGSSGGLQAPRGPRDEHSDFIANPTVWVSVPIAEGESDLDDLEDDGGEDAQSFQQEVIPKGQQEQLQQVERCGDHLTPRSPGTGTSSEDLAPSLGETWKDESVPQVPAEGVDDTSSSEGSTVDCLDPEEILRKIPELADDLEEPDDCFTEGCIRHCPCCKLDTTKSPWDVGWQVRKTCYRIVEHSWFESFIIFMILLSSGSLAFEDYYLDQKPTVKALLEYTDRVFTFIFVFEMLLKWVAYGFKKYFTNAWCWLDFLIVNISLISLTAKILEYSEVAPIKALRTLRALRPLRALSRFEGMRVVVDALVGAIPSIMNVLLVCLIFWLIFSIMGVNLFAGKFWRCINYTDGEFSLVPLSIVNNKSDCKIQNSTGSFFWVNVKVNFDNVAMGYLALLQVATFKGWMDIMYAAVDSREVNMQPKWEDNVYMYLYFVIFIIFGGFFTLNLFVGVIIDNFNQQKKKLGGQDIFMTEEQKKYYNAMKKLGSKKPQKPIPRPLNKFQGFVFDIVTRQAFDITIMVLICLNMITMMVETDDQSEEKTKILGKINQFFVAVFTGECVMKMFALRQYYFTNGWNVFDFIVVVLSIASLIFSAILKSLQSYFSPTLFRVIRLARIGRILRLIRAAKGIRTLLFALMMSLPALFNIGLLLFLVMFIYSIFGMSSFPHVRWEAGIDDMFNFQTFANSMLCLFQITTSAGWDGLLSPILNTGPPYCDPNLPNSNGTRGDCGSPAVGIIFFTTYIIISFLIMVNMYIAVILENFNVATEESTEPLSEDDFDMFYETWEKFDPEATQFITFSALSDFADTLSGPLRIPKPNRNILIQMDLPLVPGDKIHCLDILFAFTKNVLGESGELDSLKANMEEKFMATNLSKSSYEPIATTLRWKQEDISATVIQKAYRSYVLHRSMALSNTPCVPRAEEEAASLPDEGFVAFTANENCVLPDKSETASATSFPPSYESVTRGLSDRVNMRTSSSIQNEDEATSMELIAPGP
T1 sequence (Q9NY72 23-215 partner): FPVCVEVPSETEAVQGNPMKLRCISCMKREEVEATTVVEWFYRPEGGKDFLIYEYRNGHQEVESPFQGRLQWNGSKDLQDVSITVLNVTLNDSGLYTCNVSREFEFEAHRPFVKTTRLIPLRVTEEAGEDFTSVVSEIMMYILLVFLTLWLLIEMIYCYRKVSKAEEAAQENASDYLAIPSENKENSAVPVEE

For orientation: pIC50 means the IC50 on a negative log10 scale, so that one unit is a factor of ten. `CNCC(=O)N=[S@](C)(=O)c1cccc(NC(=O)c2cc(Cl)c(C(F)(F)F)cc2Oc2ccc(F)nc2C)c1` [Example 29B]: the negative logarithm of the IC50 (pIC50) reads like this: under setting [1], over 8.30; under setting [2], over 8.30.

As for `Cc1nc(F)ccc1Oc1ncc(C(F)(F)F)c(C)c1C(=O)Nc1cccc([S@@](C)(=O)=NC(=O)[C@H](C)O)c1` [Example 13D, 2-((6-fluoro-2-methylpyridin-3-yl)oxy)-N-(3-((R)—N—((S)-2-hydroxypropanoyl)-S-methylsulfonimidoyl)phenyl)-4-methyl-5-(trifluoromethyl)nicotinamide], the pIC50 is, setting by setting: under setting [3], over 8.30; under setting [4], over 8.30.

As for `Cc1nc(F)ccc1Oc1cc(C(F)(F)F)cc(F)c1C(=O)Nc1ccc(C(N)=O)cc1` [Example 36A], the negative logarithm of the IC50 (pIC50) is 7.30 to 8.30 (P1 (IC50, resting state block), P1 measurement, resting state block, holding potential −120 mV, first set of compounds) and 7.30 to 8.30 (P2 (IC50, inactivated state block), P2 measurement, inactivated state block, inactivation step −35 mV 10 sec, first set of compounds).

For `Cc1nc(F)ccc1Oc1cc(C(F)(F)F)ccc1C(=O)Nc1cccc([S@@](C)(=O)=NC(=O)[C@@H](C)N)c1` [Example 9B, N-(3-((R)—N-(D-alanyl)-S-methylsulfonimidoyl)phenyl)-2-((6-fluoro-2-methylpyridin-3-yl)oxy)-4-(trifluoromethyl)benzamide], the negative-log IC50 (pIC50) reads like this: under setting [1], over 8.30; under setting [2], over 8.30.

On to `COc1cc(C#N)ccc1Oc1ncc(-c2ccc(C(F)F)cc2)c(C)c1C(=O)Nc1ccnc(S(C)(=N)=O)c1` (stereo not drawn) [Example 125C], for which the negative logarithm of the IC50 (pIC50) was under 6.70 under setting [5] and under 6.70 under setting [6].

For `Cc1nc(F)ccc1Oc1cc(C(F)(F)F)ccc1C(=O)Nc1cccc([S@@](C)(=O)=NC(=O)[C@@H](C)O)c1` [Example 13B, 2-((6-fluoro-2-methylpyridin-3-yl)oxy)-N-(3-((R)—N—((R)-2-hydroxypropanoyl)-S-methylsulfonimidoyl)phenyl)-4-(trifluoromethyl)benzamide], the negative logarithm of the IC50 (pIC50) runs as follows: under setting [1], 7.30 to 8.30; under setting [2], 7.30 to 8.30.

Consider `Cc1nc(F)ccc1Oc1nc(C(F)(F)F)c(C#N)c(C)c1C(=O)Nc1cccc([S@](C)(=N)=O)c1` [Example 113C], for which the negative-log IC50 (pIC50) was 7.30 to 8.30 under setting [5] and 7.30 to 8.30 under setting [6].

For `Cc1nc(F)ccc1Oc1nnc(C(F)(F)F)c(C)c1C(=O)Nc1cccc(S(N)(=O)=O)c1` [Example 13C, 3-((6-fluoro-2-methylpyridin-3-yl)oxy)-5-methyl-N-(3-sulfamoylphenyl)-6-(trifluoromethyl)pyridazine-4-carboxamide], the negative logarithm of the IC50 (pIC50) is over 8.30 under setting [5] and over 8.30 under setting [6].

`COc1cc(C#N)ccc1Oc1ncc(-c2ccc(C#N)cc2)c(C)c1C(=O)Nc1cccc([S@](C)(=N)=O)c1` [Example 20C, (R)-2-(4-cyano-2-methoxyphenoxy)-5-(4-cyanophenyl)-4-methyl-N-(3-(S-methylsulfonimidoyl)phenyl)nicotinamide]: the pIC50 runs as follows: under setting [5], 7.30 to 8.30; under setting [6], 7.30 to 8.30.

In the case of `Cc1nc(F)ccc1Oc1cc(C(F)(F)F)c(Cl)cc1C(=O)Nc1cccc([S@@](C)(=O)=NC(=O)[C@@H](C)N)c1` [Example 5B, N-(3-((R)—N-(D-alanyl)-S-methylsulfonimidoyl)phenyl)-5-chloro-2-((6-fluoro-2-methylpyridin-3-yl)oxy)-4-(trifluoromethyl)benzamide], the pIC50 is over 8.30 under setting [1] and over 8.30 under setting [2].

With `Cc1nc(F)ccc1Oc1ncc(C(F)(F)F)c(C)c1C(=O)Nc1cccc([S@@](C)(=O)=NC(=O)C2CNC2)c1` [Example 4D, (R)—N-(3-(N-(azetidine-3-carbonyl)-S-methylsulfonimidoyl)phenyl)-2-((6-fluoro-2-methylpyridin-3-yl)oxy)-4-methyl-5-(trifluoromethyl)nicotinamide], the negative-log IC50 (pIC50) runs as follows: under setting [3], over 8.30; under setting [4], over 8.30.

For the molecule `COc1cc(C#N)ccc1Oc1cc(C(F)(F)F)nnc1C(=O)Nc1cccc(S(C)(=N)=O)c1` (stereo not drawn) [Example 34C, 4-(4-cyano-2-methoxyphenoxy)-N-(3-(S-methylsulfonimidoyl)phenyl)-6-(trifluoromethyl)pyridazine-3-carboxamide], the pIC50 is under 6.70 under setting [5] and under 6.70 under setting [6].
